Data from patent US20130336889A1, “NANOPARTICLE AND METHOD FOR DETECTING OR TREATING A TUMOR USING THE SAME” (NATIONAL TAIWAN UNIVERSITY, priority 2012, published 2013).

Assays:
HCT-116 cells = assay: Cytotoxicity by MTT assay without or with NIR irradiation; type: cell-based, human; conditions: 2.5 μg/mL
Description: Cell viability was determined with the MTT assay and a scanning multiwell ELISA reader (Microplate Autoreader EL311, Bio-Tek Instruments Inc., Winooski, Vt., USA). The fraction of live cells was calculated by dividing the mean optical density obtained from treated cells by the mean optical density from untreated control cells.

[1] = Absorbance spectra (UV-vis); type: physicochemical

**Q.** Which excess cells killed (HCT-116 cells; 808 nm 0.6 W/cm^2 NIR irradiation 10 min) does the source give for `CCCN1C(=CC=C2CCCC(C=CC3=[N+](CCC)c4ccccc4C3(C)C)=C2Cl)C(C)(C)c2ccccc21.[I-]` [free IR-780 iodide, IR-780 iodide] here?
**A.** The excess cells killed was 0.3%.

**Q.** And the excess cells killed (HCT-116 cells; 808 nm 0.6 W/cm^2 NIR irradiation 20 min)?
**A.** Its excess cells killed is 26.8%.

**Q.** And the “maximum wavelength (λmax) of absorption” value ([1]; IR-780 dye diluted in THF, IR-780 micelles in PBS)?
**A.** The value was “about 795 nm”.

**Q.** What about the “λmax of absorption peak” value ([1]; aggregated in aqueous buffer, broad and blue-shifted) of the same compound?
**A.** The value was 775 nm.
